From patent US7138361B2, “Herbicidal heterocycles” (E. I. du Pont de Nemours and Company, priority 2000, dated 2006)

Assays:
Assay type in all cases: in vivo
[1] = tested on: Surinam grass (Brachiaria decumbens); assay: Test B postemergence; details: 13 to 15 days
In short: (§1)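 Visual injury scores, 0 = no effect to 100 = complete control, assigned against controls after 13 to 15 days in the greenhouse. Compounds formulated in non-phytotoxic solvent plus surfactant and applied to soil after planting (pre) or onto foliage of 1- to 4-leaf plants (post).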

[2] = tested on: barnyardgrass (Echinochloa crus-galli); assay: Test B postemergence; details: 13 to 15 days
In short: as §1

[3] = tested on: blackgrass (Alopecurus myosuroides); assay: Test B postemergence; details: 13 to 15 days
In short: as §1

corn (Zea mays) [4] = assay: Test B postemergence; details: 13 to 15 days
In short: as §1

[5] = tested on: crabgrass (Digitaria sanguinalis); assay: Test B postemergence; details: 13 to 15 days
In short: as §1

[6] = tested on: giant foxtail (Setaria faberii); assay: Test B postemergence; details: 13 to 15 days
In short: as §1

[7] = tested on: lambsquarters (Chenopodium album); assay: Test B postemergence; details: 13 to 15 days
In short: as §1

[8] = tested on: morning glory (Ipomoea hederacea); assay: Test B postemergence; details: 13 to 15 days
In short: as §1

[9] = tested on: pigweed (Amaranthus retroflexus); assay: Test B postemergence; details: 13 to 15 days
In short: as §1

[10] = tested on: velvetleaf (Abutilon theophrasti); assay: Test B postemergence; details: 13 to 15 days
In short: as §1

[11] = tested on: wheat (Triticum aestivum); assay: Test B postemergence; details: 13 to 15 days
In short: as §1

wild oat (Avena fatua) = assay: Test B postemergence; details: 13 to 15 days
In short: as §1

[12] = tested on: Surinam grass (Brachiaria decumbens); assay: Test B preemergence
In short: as §1

[13] = tested on: barnyardgrass (Echinochloa crus-galli); assay: Test B preemergence
In short: as §1

[14] = tested on: cocklebur (Xanthium strumarium); assay: Test B preemergence
In short: as §1

corn (Zea mays) [15] = assay: Test B preemergence
In short: as §1

[16] = tested on: crabgrass (Digitaria sanguinalis); assay: Test B preemergence
In short: as §1

[17] = tested on: giant foxtail (Setaria faberii); assay: Test B preemergence
In short: as §1

[18] = tested on: lambsquarters (Chenopodium album); assay: Test B preemergence
In short: as §1

[19] = tested on: morning glory (Ipomoea hederacea); assay: Test B preemergence
In short: as §1

[20] = tested on: pigweed (Amaranthus retroflexus); assay: Test B preemergence
In short: as §1

rice (Oryza saliva) = assay: Test B preemergence
In short: as §1

[21] = tested on: velvetleaf (Abutilon theophrasti); assay: Test B preemergence
In short: as §1

Nightshade = assay: Test C preemergence; details: visual evaluation after 12 to 14 days
Sunflower = assay: Test C preemergence; details: scale 0 to 100, 0 no effect, 100 complete control
[22] = tested on: cocklebur (Xanthium strumarium); assay: Test B postemergence; details: 13 to 15 days
In short: as §1

[23] = Rate 125 g/ha, scale 0 (no effect) to 100 (complete control)
[24] = Rate 500 g/ha, scale 0 to 100, 0 is no effect, 100 is complete control
[25] = Preemergence, Rate 500 g/ha, scale 0 to 100, 0 no effect, 100 complete control
[26] = preemergence, Rate 125 g/ha, scale of 0 to 100 where 0 is no effect and 100 is complete control, 13 to 15 days
[27] = preemergence, Rate 125 g/ha, scale 0 to 100, 0 no effect, 100 complete control

CCCC(C)c1ccn(C2CCN(c3cccc(OC)c3)C2=O)n1 (centres unmarked) [Compound 99]
Plant response rating, Surinam grass [1, 23]: 0
Plant response rating, Surinam grass [1, 24]: 0
Plant response rating, Barnyardgrass [2, 23]: 0
Plant response rating, Barnyardgrass [2, 24]: 0
Plant response rating, Blackgrass [3, 23]: 0
Plant response rating, Blackgrass [3, 24]: 0
Plant response rating, Corn (corn (Zea mays) [4]; [23]): 0
Plant response rating, Corn (corn (Zea mays) [4]; [24]): 0
Plant response rating, Crabgrass [5, 23]: 0
Plant response rating, Crabgrass [5, 24]: 0
Plant response rating, Foxtail, Giant [6, 23]: 0
Plant response rating, Foxtail, Giant [6, 24]: 0
Plant response rating, Lambsquarters [7, 24]: 70
Plant response rating, Morningglory [8, 24]: 0
Plant response rating, Pigweed [9, 24]: 0
Plant response rating, Velvetleaf [10, 24]: 0
Plant response rating, Wheat [11, 24]: 0
Plant response rating, Wild Oat (wild oat (Avena fatua); [24]): 0
Plant response rating, Surinam grass [12, 25]: 20
Plant response rating, Surinam grass [12, 26]: 0
Plant response rating, Barnyardgrass [13, 25]: 100
Plant response rating, Barnyardgrass [13, 26]: 0
Plant response rating, Cocklebur [14, 25]: 0
Plant response rating, Cocklebur [14, 26]: 0
Plant response rating, Corn (corn (Zea mays) [15]; [25]): 30
Plant response rating, Corn (corn (Zea mays) [15]; [26]): 0
Plant response rating, Crabgrass [16, 25]: 100
Plant response rating, Crabgrass [16, 26]: 0
Plant response rating, Foxtail, Giant [17, 25]: 100
Plant response rating, Foxtail, Giant [17, 26]: 0
Plant response rating, Lambsquarters [18, 25]: 100
Plant response rating, Lambsquarters [18, 26]: 100
Plant response rating, Morningglory [19, 25]: 0
Plant response rating, Morningglory [19, 26]: 0
Plant response rating, Pigweed [20, 25]: 100
Plant response rating, Pigweed [20, 26]: 0
Plant response rating, Rice (rice (Oryza saliva); [25]): 20
Plant response rating, Rice (rice (Oryza saliva); [26]): 0
Plant response rating, Velvetleaf [21, 25]: 0
Plant response rating, Velvetleaf [21, 26]: 0
Plant response rating (0 to 100), Nightshade (Nightshade; Rate 500 g/ha): 10
Plant response rating, Sunflower (Sunflower; Rate 250 g/ha): 0

CCC(C)c1ccn(C2SCN(c3cccc(C(F)(F)F)c3)C2=O)n1 (centres unmarked) [Compound 20]
Plant response rating, Surinam grass [1, 23]: 0
Plant response rating, Surinam grass [1, 24]: 0
Plant response rating, Barnyardgrass [2, 23]: 60
Plant response rating, Barnyardgrass [2, 24]: 100
Plant response rating, Blackgrass [3, 23]: 0
Plant response rating, Blackgrass [3, 24]: 0
Plant response rating, Cocklebur [22, 23]: 80
Plant response rating, Cocklebur [22, 24]: 90
Plant response rating, Corn (corn (Zea mays) [4]; [23]): 0
Plant response rating, Corn (corn (Zea mays) [4]; [24]): 20
Plant response rating, Crabgrass [5, 23]: 20
Plant response rating, Crabgrass [5, 24]: 80
Plant response rating, Foxtail, Giant [6, 23]: 50
Plant response rating, Foxtail, Giant [6, 24]: 90
Plant response rating, Lambsquarters [7, 23]: 90
Plant response rating, Lambsquarters [7, 24]: 90
Plant response rating, Morningglory [8, 23]: 60
Plant response rating, Morningglory [8, 24]: 60
Plant response rating, Pigweed [9, 23]: 90
Plant response rating, Pigweed [9, 24]: 90
Plant response rating, Velvetleaf [10, 23]: 10
Plant response rating, Velvetleaf [10, 24]: 20
Plant response rating, Wheat [11, 23]: 0
Plant response rating, Wheat [11, 24]: 0
Plant response rating, Wild Oat (wild oat (Avena fatua); [23]): 0
Plant response rating, Wild Oat (wild oat (Avena fatua); [24]): 0
Plant response rating, Surinam grass [12, 25]: 0
Plant response rating, Surinam grass [12, 27]: 0
Plant response rating, Barnyardgrass [13, 25]: 100
Plant response rating, Barnyardgrass [13, 27]: 0
Plant response rating, Cocklebur [14, 25]: 0
Plant response rating, Cocklebur [14, 27]: 0
Plant response rating, Corn (corn (Zea mays) [15]; [25]): 0
Plant response rating, Corn (corn (Zea mays) [15]; [27]): 0
Plant response rating, Crabgrass [16, 27]: 0
Plant response rating, Foxtail, Giant [17, 25]: 100
Plant response rating, Foxtail, Giant [17, 27]: 70
Plant response rating, Morningglory [19, 25]: 0
Plant response rating, Morningglory [19, 27]: 0
Plant response rating, Pigweed [20, 25]: 100
Plant response rating, Pigweed [20, 27]: 0
Plant response rating, Rice (rice (Oryza saliva); [25]): 0
Plant response rating, Rice (rice (Oryza saliva); [27]): 0
Plant response rating, Velvetleaf [21, 25]: 0
Plant response rating, Velvetleaf [21, 27]: 0
Plant response rating (0 to 100), Nightshade (Nightshade; Rate 250 g/ha): 90
Plant response rating, Sunflower (Sunflower; Rate 125 g/ha): 40
